How the values were obtained:
Format in all cases: in vivo
[1] = system: field corn (Zea mays L., var. Dekalb 535, CORN); assay: Post-emerge test, crop safety; settings: rating scale 0-100 (0 no damage, 100 complete death), 14 days after application
How it was run: (§1)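 Compounds in acetone were track-sprayed at 15-1000 g ai/ha (187 l/ha) on sandy loam pots: pre-emerge one day after seeding, post-emerge at 2-3 leaf stage with 0.25% v/v non-ionic surfactant. Phytotoxicity was rated 14 days later on a 0 (no damage) to 100 (complete death) scale.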

[2] = system: upland rice (Oryza sp., var. Tebonnet, RICE); assay: Post-emerge test, crop safety; settings: rating scale 0-100 (0 no damage, 100 complete death), 14 days after application
How it was run: as §1

[3] = system: redroot pigweed (Amaranthus retroflexus, AMARE); assay: Pre-emerge test, greenhouse herbicide activity screening; settings: rating scale 0-100, 14 days after application
How it was run: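 Herbicidal damage is scored 0 (none) to 100 (complete plant death) two weeks after a simulated field spray. Rates span 15–1000 g ai/ha, delivered in acetone at 187 l/ha. For post-emergence treatments, plants have 2–3 leaves and the spray carries 0.25% v/v non-ionic surfactant.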

[4] = system: field corn (Zea mays L., var. Dekalb 535, CORN); assay: Pre-emerge test, crop safety; settings: rating scale 0-100, 14 days after application
How it was run: (§2)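 Applied at 15–1000 g ai/ha from acetone in 187 l/ha spray volume. Post-emergence applications included 0.25% v/v non-ionic surfactant and reached plants sown 8–21 days before. Pre-emergence applications were incorporated by surface watering. Efficacy or crop damage was rated on a 0–100 scale after 14 days.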

[5] = system: upland rice (Oryza sp., var. Tebonnet, RICE); assay: Pre-emerge test, crop safety; settings: rating scale 0-100, 14 days after application
How it was run: as §2

[6] = system: common ragweed (Ambrosia artemisizfolia L., AMBEL); assay: Post-emerge test, greenhouse herbicide activity screening; settings: rating scale 0-100 (0 no damage, 100 complete death), 14 days after application
How it was run: (§3)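 Each test used a mechanized track sprayer delivering 187 l/ha of acetone solution at 15–1000 g ai/ha. Post-emerge foliage at 2–3 leaves was treated with added 0.25% v/v non-ionic surfactant and bottom-watered only. Injury was assessed on day 14, where 100 means total kill.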

[7] = system: ivyleaf morningglory (Ipomoea hederacea, IPOHE); assay: as above; settings: rating scale 0-100 (0 no damage, 100 complete death), 14 days after application
How it was run: as §3

[8] = system: large crabgrass (Digitaria sanguinalis, DIGSA); assay: as above; settings: rating scale 0-100 (0 no damage, 100 complete death), 14 days after application
How it was run: as §3

[9] = system: johnsongrass (Sorghum halepense, SORHA); assay: as above; settings: rating scale 0-100 (0 no damage, 100 complete death), 14 days after application
How it was run: as §3

[10] = system: green foxtail (Setaria viridis, SETVI); assay: as above; settings: rating scale 0-100 (0 no damage, 100 complete death), 14 days after application
How it was run: as §3

[11] = system: sicklepod (Cassia obtusifolia, CASOB); assay: as above; settings: rating scale 0-100 (0 no damage, 100 complete death), 14 days after application
How it was run: as §3

[12] = system: barnyardgrass (Echinochloa crus-galli, ECHCG); assay: as above; settings: rating scale 0-100 (0 no damage, 100 complete death), 14 days after application
How it was run: as §3

[13] = system: redroot pigweed (Amaranthus retroflexus, AMARE); assay: as above; settings: rating scale 0-100 (0 no damage, 100 complete death), 14 days after application
How it was run: as §3

[14] = system: lambsquarters (Chenopodium album, CHEAL); assay: as above; settings: rating scale 0-100 (0 no damage, 100 complete death), 14 days after application
How it was run: as §3

[15] = system: velvetleaf (Abutilon theophrasti, ABUTH); assay: as above; settings: rating scale 0-100 (0 no damage, 100 complete death), 14 days after application
How it was run: as §3

[16] = system: common ragweed (Ambrosia artemisizfolia L., AMBEL); assay: Pre-emerge test, greenhouse herbicide activity screening; settings: rating scale 0-100, 14 days after application
How it was run: as §1

[17] = system: ivyleaf morningglory (Ipomoea hederacea, IPOHE); assay: as above; settings: rating scale 0-100, 14 days after application
How it was run: as §1

[18] = system: large crabgrass (Digitaria sanguinalis, DIGSA); assay: as above; settings: rating scale 0-100, 14 days after application
How it was run: as §1

[19] = system: johnsongrass (Sorghum halepense, SORHA); assay: as above; settings: rating scale 0-100, 14 days after application
How it was run: as §1

[20] = system: green foxtail (Setaria viridis, SETVI); assay: as above; settings: rating scale 0-100, 14 days after application
How it was run: as §1

[21] = system: sicklepod (Cassia obtusifolia, CASOB); assay: as above; settings: rating scale 0-100, 14 days after application
How it was run: as §1

[22] = system: barnyardgrass (Echinochloa crus-galli, ECHCG); assay: as above; settings: rating scale 0-100, 14 days after application
How it was run: as §1

[23] = system: lambsquarters (Chenopodium album, CHEAL); assay: as above; settings: rating scale 0-100, 14 days after application
How it was run: as §1

[24] = system: velvetleaf (Abutilon theophrasti, ABUTH); assay: as above; settings: rating scale 0-100, 14 days after application
How it was run: as §1

## CCCOC(=O)C(Cl)Cc1c(OC)c(Cl)cc(F)c1-n1c(=O)cc(C(F)(F)F)n(C)c1=O (single isomer, unassigned) [14-7]
[1]; Rate 63 g ai/ha
  Post-emerge phytotoxicity rating CORN (crop damage): 95
[1]; Rate 250 g ai/ha
  Post-emerge phytotoxicity rating CORN (crop damage): 100
[2]; Rate 63 g ai/ha
  Post-emerge phytotoxicity rating RICE (crop damage): 10
[2]; Rate 250 g ai/ha
  Post-emerge phytotoxicity rating RICE (crop damage): 25
[3]; 63 g ai/ha
  Pre-emerge herbicidal activity, phytotoxicity rating AMARE: 90
[3]; 250 g ai/ha
  Pre-emerge herbicidal activity, phytotoxicity rating AMARE: 100
[4]; 63 g ai/ha
  Pre-emerge phytotoxicity rating, crop damage CORN: 10
[4]; 250 g ai/ha
  Pre-emerge phytotoxicity rating, crop damage CORN: 90
[5]; 63 g ai/ha
  Pre-emerge phytotoxicity rating, crop damage RICE: 0
[5]; 250 g ai/ha
  Pre-emerge phytotoxicity rating, crop damage RICE: 40
[6]; Rate 63 g ai/ha
  Post-emerge Herbicidal Activity, phytotoxicity rating AMBEL: 50
[6]; Rate 250 g ai/ha
  Post-emerge Herbicidal Activity, phytotoxicity rating AMBEL: 90
[7]; Rate 63 g ai/ha
  Post-emerge Herbicidal Activity, phytotoxicity rating IPOHE: 20
[7]; Rate 250 g ai/ha
  Post-emerge Herbicidal Activity, phytotoxicity rating IPOHE: 60
[8]; Rate 63 g ai/ha
  Post-emerge Herbicidal Activity, phytotoxicity rating DIGSA: 80
[8]; Rate 250 g ai/ha
  Post-emerge Herbicidal Activity, phytotoxicity rating DIGSA: 100
[9]; Rate 63 g ai/ha
  Post-emerge Herbicidal Activity, phytotoxicity rating SORHA: 70
[9]; Rate 250 g ai/ha
  Post-emerge Herbicidal Activity, phytotoxicity rating SORHA: 90
[10]; Rate 63 g ai/ha
  Post-emerge Herbicidal Activity, phytotoxicity rating SETVI: 60
[10]; Rate 250 g ai/ha
  Post-emerge Herbicidal Activity, phytotoxicity rating SETVI: 85
[11]; Rate 63 g ai/ha
  Post-emerge Herbicidal Activity, phytotoxicity rating CASOB: 0
[11]; Rate 250 g ai/ha
  Post-emerge Herbicidal Activity, phytotoxicity rating CASOB: 20
[12]; Rate 63 g ai/ha
  Post-emerge Herbicidal Activity, phytotoxicity rating ECHCG: 100
[12]; Rate 250 g ai/ha
  Post-emerge Herbicidal Activity, phytotoxicity rating ECHCG: 100
[13]; Rate 63 g ai/ha
  Post-emerge Herbicidal Activity, phytotoxicity rating AMARE: 95
[13]; Rate 250 g ai/ha
  Post-emerge Herbicidal Activity, phytotoxicity rating AMARE: 100
[14]; Rate 63 g ai/ha
  Post-emerge Herbicidal Activity, phytotoxicity rating CHEAL: 90
[14]; Rate 250 g ai/ha
  Post-emerge Herbicidal Activity, phytotoxicity rating CHEAL: 99
[15]; Rate 63 g ai/ha
  Post-emerge Herbicidal Activity, phytotoxicity rating ABUTH: 50
[15]; Rate 250 g ai/ha
  Post-emerge Herbicidal Activity, phytotoxicity rating ABUTH: 100
[16]; 63 g ai/ha
  Pre-emerge herbicidal activity, phytotoxicity rating AMBEL: 0
[16]; 250 g ai/ha
  Pre-emerge herbicidal activity, phytotoxicity rating AMBEL: 50
[17]; 63 g ai/ha
  Pre-emerge herbicidal activity, phytotoxicity rating IPOHE: 0
[17]; 250 g ai/ha
  Pre-emerge herbicidal activity, phytotoxicity rating IPOHE: 0
[18]; 63 g ai/ha
  Pre-emerge herbicidal activity, phytotoxicity rating DIGSA: 90
[18]; 250 g ai/ha
  Pre-emerge herbicidal activity, phytotoxicity rating DIGSA: 100
[19]; 63 g ai/ha
  Pre-emerge herbicidal activity, phytotoxicity rating SORHA: 0
[19]; 250 g ai/ha
  Pre-emerge herbicidal activity, phytotoxicity rating SORHA: 70
[20]; 63 g ai/ha
  Pre-emerge herbicidal activity, phytotoxicity rating SETVI: 10
[20]; 250 g ai/ha
  Pre-emerge herbicidal activity, phytotoxicity rating SETVI: 90
[21]; 63 g ai/ha
  Pre-emerge herbicidal activity, phytotoxicity rating CASOB: 20
[21]; 250 g ai/ha
  Pre-emerge herbicidal activity, phytotoxicity rating CASOB: 0
[22]; 63 g ai/ha
  Pre-emerge herbicidal activity, phytotoxicity rating ECHCG: 0
[22]; 250 g ai/ha
  Pre-emerge herbicidal activity, phytotoxicity rating ECHCG: 75
[23]; 63 g ai/ha
  Pre-emerge herbicidal activity, phytotoxicity rating CHEAL: 40
[23]; 250 g ai/ha
  Pre-emerge herbicidal activity, phytotoxicity rating CHEAL: 85
[24]; 63 g ai/ha
  Pre-emerge herbicidal activity, phytotoxicity rating ABUTH: 100
[24]; 250 g ai/ha
  Pre-emerge herbicidal activity, phytotoxicity rating ABUTH: 100

From patent US6355799B1, “Substituted benzene compounds, process for their preparation, and herbicidal and defoliant compositions containing them” (ISK Americas Incorporated, priority 1997, dated 2002)
